These results are taken from patent US10639380B2, “Flavivirus-binding, entry-obstructing, protease-resistant peptide (RI57)” (priority 2016, dated 2020).

Peptide text beside a SMILES is read from it.

The test system of data set [1] is DENV2. As to the kind of experiment: qRT-PCR virus-binding assay. The class given is cell-based, dengue virus. How it is done:
Further to characterize DENV binding to host cells, experiments were conducted to analyze the first step in the process of infection. Infection of LLC-MK2 target cells in six-well plates was executed in duplicate using 10^5 FFU of DENV2 pre-incubated 45 min at 4° C. with either DN57, or RI57 peptide, or pooled heterotypic anti-DENV human serum. Following said 45 min exposure at 4° C., infected monolayers were washed with PBS and harvested by cell scraping, added to a 1.5 ml microfuge tube containing 350 μl AR-200 silicone oil (Sigma-Aldrich, St. Louis, Mo.), mixed with 150 μl silicone fluid (Thomas, Swedesboro, N.J.), and microfuge spun 1 min at 14,000 rpm to separate unbound virus from cell-bound virus. The tubes were then submerged in liquid nitrogen for 30 sec to freeze the contents. The cell pellets with (or without) bound virus were recovered by removing the bottoms of the tubes with small wire clippers and placing them in 15 ml conical tubes. By means of the Qiagen Viral RNA Extraction Kit (Qiagen, Chatsworth, Calif.), viral RNA was extracted from cell pellets.
Using the Quantitect SYBR Green RT-PCR kit (Qiagen Inc., Chatsworth, Calif.), qRT-PCR was performed on the extracted RNA. Manufacturer's specifications and amplification protocols were followed utilizing dengue-specific primers: (DenF: 5-[…]-3 and DenR: 5-[…]-3). […] The following amplification protocol was used: 50° C. for 20 min to reverse transcribe the RNA; 95° C. for 15 min to activate the HotStart Taq DNA Polymerase; 45 PCR cycles: 94° C. for 15 sec; 50° C. for 15 sec; 72° C. for 30 sec; and fluorescence data acquisition was the final step. […]
To test whether DN57 and RI57 interfere directly with virus binding to target cells, binding assays were conducted using qRT-PCR to monitor attachment of virus to target cells. […] RNA was then extracted from the cell pellets and amplified with DENV2-specific primers to quantitate the presence of virus. […]
On the technique in general: Quantitative PCR measures a nucleic acid by following its amplification.

In data set [2] the test system is DENV2. As to the kind of experiment: Post-binding FFU assay. The class given is cell-based, dengue virus. The conditions noted are these: DN57 added after virus bound at 4° C.; data not shown, see Costin, et al., 2010. As for the experimental part:
Experiments were conducted further to characterize observed inhibitory effects as to whether these may have been due to interference with interactions occurring pre-binding, versus post-binding, of virions and LLC-MK2 target cells. An estimated 200 FFU of DENV2 were allowed to interact with target cells for 1 h at 4° C., permitting binding while preventing internalization. Unbound virus was washed off with PBS at 4° C., DN57 added, and the cultures incubated at 4° C. for 1 h, again washed in 4° C. PBS, and then warmed to 37° C. Finally, agarose overlays, incubation, and immunological detection assays were performed as described for the focus-forming assay.
Inasmuch as it was determined that inhibition by DN57 occurs at a viral-entry step, whether infection could still be inhibited after virus had bound to the surface of target cells was tested. In these experiments, virus was allowed to bind to cells at 4° C., then treated with increasing concentrations of DN57 before warming the cells to 37° C. providing conditions in favor of viral progression.

In data set [3] the test system is DENV2. As to the kind of experiment: Pre-binding FFU assay (reversibility of peptide binding). In kind it is cell-based, dengue virus. How it is done: Experiments were conducted further to characterize observed inhibitory effects and determine whether these may have been due to unintended interference owing to modifications of target LLC-MK2 cell surfaces. RI57 was incubated with target cells for 1 h at 4° C., the monolayer cells were then rinsed with PBS, and approximately 200 FFU of DENV2 allowed to infect the cells at 4° C. Agarose overlays, incubation, and immunological detection tests were conducted as described above for the focus-forming assay.
In this assay, DN57 or RI57 was added to target cells for 1 h prior to infection with DENV2 to determine whether these peptides inhibit entry through interaction directly with target cells. […] Table 5. (and also FIG. 7) presents results showing that peptide binding can be reversible. (and FIG. 5.). Introducing a step diluting the concentration of peptide 10-fold after incubating/1 h at 20° C. and then infecting immediately thereafter reverses this inhibition. Errors around the means are depicted as ±sd.

In data set [4] the test system is DENV2. As to the kind of experiment: Post-entry FFU assay. In kind it is cell-based, dengue virus. The conditions noted are these: any DN57 concentration; data not shown, see Costin, et al., 2010. How it is done: Experiments were conducted further to characterize observed inhibitory effects to determine whether they actually may have been due to interference with post-entry steps in the viral life cycle. To this end, approximately 200 FFU of DENV2 (without DN57) were allowed the opportunity to bind and then enter target LLC-MK2 cells for 1 h at 37° C. as described for the focus-forming assay. Any unbound virus was then removed by rinsing with PBS. Next, DN57 was added to the cells post-entry for 1 h at 37° C. Cultures again were washed with PBS and agarose overlays, incubation, and immunological detection assessments were performed as described for the focus-forming assay.

A short description of the next data set: in vitro. The following applies: rhesus monkey, LLC-MK2 cells (confluent monolayers).
The conditions of data set [5]: 1:2 dilution of NHS, 37° C., 24 h.
Procedure: Lane 1 contains peptide alone/time=0; lane 2, peptide at 37° C./time=24 h; lane 3, peptide in a 1:2 dilution of NHS/time=0; lane 4, peptide in a 1:2 dilution of NHS @ 37° C./time=24 h; and lane 5, a 1:2 dilution of NHS with no peptide at 37° C./time=24 h.
The next data set concerns trypsin. The following applies: peptide incubated in trypsin at 37° C. before adding STI. As for the experimental part:
The image documents 10-20% gradient gels run electrophoretically (e-gel), labeled with Imperial Protein Stain, and photographed. An e-gel was performed for each peptide, stained with Imperial stain, and photographed. The arrow markers show both the identity of the peptide run and its final location after migration. For each peptide assessment, lanes 1 contain peptide alone; lanes 2, peptide plus soybean trypsin inhibitor (STI); and lanes 3, peptide incubated in trypsin at 37° C. before adding STI.

Data set [6] has as its system DENV2. As to the kind of experiment: LLC-MK2 FFU assay after trypsin exposure of peptide. In kind it is cell-based, dengue virus. How it is done: Table 7. […] The peptides were exposed to trypsin for ten minutes at 37° C. before STI was added and further incubated ten minutes. The resulting peptide, in each case, was incubated with DENV2 for 1 hour at 20° C. and then this preparation used to infect confluent LLC-MK2 monolayers.

For data set [7], the system named is DENV2. The following applies: as previously observed; cited from earlier work.

Procedure for in vitro: Possible direct cytotoxicity caused by peptide exposure to proliferating LLC-MK2 monolayers was measured using the TACS™ MTT cell proliferation assay (R&D Systems, Inc., Minneapolis, Minn.) according to the manufacturer's instructions. The MTT assay detects and measures mitochondrial reductase activity observable in viable cells. […] A Tecan GeniosPro plate reader (Tecan US, Durham, N.C.) was used to measure absorbance at 560 nm.
Error bars show ±standard deviations (±sd) of the means with an asterisk indicating instances of statistically-significant differences from control according to Dunnett's post hoc test (p<0.05).

As a reminder, the viability is the share of living cells, or the viability signal relative to a control. Low readings indicate a greater loss of cells, high ones better survival. For `CSCC[C@H](NC(=O)[C@H](Cc1c[nH]c2ccccc12)NC(=O)[C@@H](N)CCCNC(=N)N)C(=O)N[C@H](C(=O)N[C@@H](Cc1c[nH]c2ccccc12)C(=O)N[C@@H](CCCNC(=N)N)C(=O)N[C@@H](Cc1c[nH]cn1)C(=O)N[C@@H](Cc1c[nH]c2ccccc12)C(=O)N[C@@H](Cc1ccccc1)C(=O)N[C@@H](Cc1c[nH]cn1)C(=O)N[C@@H](CCCNC(=N)N)C(=O)N[C@@H](CC(C)C)C(=O)N[C@@H](CCCNC(=N)N)C(=O)N[C@@H](CC(C)C)C(=O)N1CCC[C@H]1C(=O)N[C@@H](Cc1ccc(O)cc1)C(=O)N[C@@H](CC(N)=O)C(=O)N1CCC[C@H]1C(=O)NCC(=O)N[C@@H](CCCCN)C(=O)N[C@@H](CC(N)=O)C(=O)N[C@@H](CCCCN)C(=O)N[C@@H](CCC(N)=O)C(=O)N[C@@H](CC(N)=O)C(=O)N[C@@H](CCC(N)=O)C(=O)N[C@@H](CCC(N)=O)C(=O)N[C@@H](Cc1c[nH]c2ccccc12)C(=O)N1CCC[C@H]1C(=O)O)C(C)C` [DN57, reference compound] (H-RWMVWRHWFHRLRLPYNPGKNKQNQQWP-OH; N-terminus and C-terminus assumed), in the data set on DENV2 [1] (DENV2 + 20 uM peptide), the “% Infection Inhibition” value stood at 96.4%. In the data set with DENV2 [1] (DENV2 + 20 uM peptide + Trypsin + STI), the “% Infection Inhibition” value came out at 5.2%. Besides, in the data set on DENV2 [1] (virus co-incubated with peptide 45 min at 4° C.), the “binding of virus to cells” value is on record as “inhibit binding of virus to cells”. Further, the “DENV-2 infection after virus binding to cells, before entry” value in the data set on DENV2 [2] is “inhibits DENV-2 infection”. Further, the “% DENV2 Infection Inhibition” value in the data set on DENV2 [3] (PBS Rinse (text: peptide diluted 10-fold after incubation, then infecting)) was −2.8%. The “% DENV2 Infection Inhibition” value in the data set on DENV2 [3] (incubation with 10 μM/1 h at 20° C., no rinse) stood at 83.1%. Also, the “inhibition on treatment of target cells with peptide prior to DENV2 infection” value with DENV2 [3] (peptide added to target cells for 1 h prior to infection) is recorded as “no evidence of inhibition”. Further, the “viral replication when peptide added post-entry” value in the data set on DENV2 [4] is “no inhibition of viral replication was observed”. In “in vitro”, the viability at 24 h, 0.1 µM was found to be 100%; the viability at 24 h, 0.5 µM came out at 98.6%; the viability at 24 h, 1 µM is 100%; the viability at 24 h, 5 µM turned out to be 97.8%. In “in vitro”, the viability at 24 h, 10 µM came out at 95.9%; the viability at 24 h, 15 µM was 92.8%; the viability at 24 h, 20 µM amounted to 76.4%; the viability at 24 h, 25 µM stood at 80.2%. In the data set “in vitro”, this compound came in with a viability at 24 h, 30 µM of 54.7%; a viability at 24 h, 35 µM of 55.1%; a viability at 24 h, 40 µM of 50.6%. The “degradation in normal human serum (e-gel)” value in [5] is given as “absent”. Further, the “trypsin cleavage (e-gel)” value in the data set on trypsin was “degraded”. Further, the “% Infection Inhibition” value with DENV2 [6] (DENV2 + 20 uM peptide) was determined as 96.4%. The “% Infection Inhibition” value with DENV2 [6] (DENV2 + 20 uM peptide + Trypsin + STI (trypsin ten minutes at 37° C.)) was found to be 5.2%. Moreover, the “DENV2 inhibitory activity after trypsin exposure” value in the data set on DENV2 [6] (trypsin ten minutes at 37° C. before STI) is “did not”.

For heparin sulfate, in the data set on DENV2 [7], the “binding of dengue virus to cells (control)” value is listed as “dramatically reduces binding of dengue virus to cells”.
